The record followed here is patent US9023851B2 (Merck Patent GmbH, priority 2010, dated 2015).

Assay type in all cases: biochemical
One assay deals with T1, Syk (Homo sapiens, UniProt P43405).
T1 construct: purchased BPS Bioscience, CA, USA
Kind of assay: Syk enzyme assay (flash plate / Caliper mobility shift). Here is the method:
The kinase assay is performed either as 384-well Flashplate assay (for e.g. Topcount measurement) or as 384-well Image-Flashplate assay (for LEADseeker measurement).
2.5 nM SYK, 400 nM Biotin-Aha-Aha-[…] and 10 μM ATP (spiked with 0.3 μCi 33P-ATP/well) are incubated in a total volume of 50 μl (60 mM Hepes, 10 mM MgCl2, 1.2 mM Dithiothreitol, 0.02% Brij35, 0.1% BSA, pH 7.5) with or without test compound for 1 hours at 30° C. The reaction is stopped with 25 μl 200 mM EDTA. After 30 Min at 30° C. the liquid is removed and each well washed thrice with 100 μl 0.9% sodium chloride solution. Non-specific reaction is determined in presence of 0.1 μM Staurosporine. Radioactivity is measured with Topcount (when using Flashplates) or with LEADseeker (when using Image-Flashplates) respectively. Results (e.g. IC50-values) are calculated with program tools provided by the IT-department (e.g. Symyx Assay Explorer, Genedata Screener).
(§1) Enzymatic Assays Using the Caliper LifeSciences Technology
(§2) The assays described here are performed on the Caliper Life Sciences LC3000 system This technology provides data on enzyme activity via measurement of the relative amounts of phosphorylated or unphosphorylated fluorescently labelled substrate peptide at the end of an enzymatic reaction. These different states of peptide are resolved by applying a potential difference across the sample. The presence of the charged phosphate group on the product (as opposed to the substrate) causes a different peptide mobility between the two peptides. This is visualized by excitation of the fluorescent label on the substrate and product peptides and represented as peaks within the analysis software.
(§3) In order to measure inhibitor activity of kinase inhibitors on this technology, a TTP Mosquito liquid handling instrument is used to place 0.25 ul of the appropriate concentration of inhibitor in 100% DMSO (for a dose response curve calculation) into each well of a 384-well plate. To this reaction components are added to a final volume of 25 ul. The table below indicates the sequences and concentrations for the assays described in this report. Standard components are 1 mM DTT (Sigma, D0632), 1 mM MgCl2 (Sigma, M1028), 100 mM HEPES pH 7.5 (Calbiochem, 391338), 0.015% Brij-35 (Sigma, B4184).
(§4) The reaction is incubated for 90 min at 25 C, and then stopped by the addition of 70 ul of Stop buffer (100 mM HEPES pH 7.5, 0.015% Brij-35, 10 mM EDTA (Sigma, E7889)).
(§5) The plate is read on a Caliper LC 3000 in an Off-Chip mobility shift assay format, on a 12-sipper chip. Unphosphorylated substrate and phosphorylated product peptide resolve as separate peaks allowing direct measurement of percentage of conversion of substrate to product. The percent conversion can be plotted against concentration of inhibitor to produce a sigmoidal dose response curve, from which an IC50 can be calculated using GeneData Condoseo or a similar product. Cellular activity assays

In another assay the target is T2, ZAP-70 (Homo sapiens, UniProt P43403).
T2 construct: purchased BPS Bioscience, CA, USA
T2 sequence (P43403 1-619): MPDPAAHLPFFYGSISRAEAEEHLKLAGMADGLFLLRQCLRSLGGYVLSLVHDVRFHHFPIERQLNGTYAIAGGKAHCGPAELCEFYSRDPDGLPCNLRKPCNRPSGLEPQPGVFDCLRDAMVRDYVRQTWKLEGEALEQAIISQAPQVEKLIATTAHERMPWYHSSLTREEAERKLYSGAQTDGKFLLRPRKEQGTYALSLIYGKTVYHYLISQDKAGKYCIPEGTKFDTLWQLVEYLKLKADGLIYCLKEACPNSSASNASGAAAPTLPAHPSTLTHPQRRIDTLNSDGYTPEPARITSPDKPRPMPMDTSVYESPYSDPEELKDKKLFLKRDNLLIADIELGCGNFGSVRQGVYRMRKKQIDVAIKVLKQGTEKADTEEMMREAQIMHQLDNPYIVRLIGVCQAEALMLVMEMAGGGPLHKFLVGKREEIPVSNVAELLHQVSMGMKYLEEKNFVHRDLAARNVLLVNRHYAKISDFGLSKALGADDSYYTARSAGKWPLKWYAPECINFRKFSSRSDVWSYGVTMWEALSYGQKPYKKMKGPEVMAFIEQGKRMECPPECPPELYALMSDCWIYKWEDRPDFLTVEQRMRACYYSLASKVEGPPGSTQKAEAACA
The assay can be described thus: Zap70 enzymatic assay (Caliper LifeSciences technology). Here is the method: as §1, §2, §3, §4, §5

For the next assay, the target named is T3, KDR (Homo sapiens, UniProt P35968).
T3 construct: purchased BPS Bioscience, CA, USA
T3 sequence (P35968 20-1356): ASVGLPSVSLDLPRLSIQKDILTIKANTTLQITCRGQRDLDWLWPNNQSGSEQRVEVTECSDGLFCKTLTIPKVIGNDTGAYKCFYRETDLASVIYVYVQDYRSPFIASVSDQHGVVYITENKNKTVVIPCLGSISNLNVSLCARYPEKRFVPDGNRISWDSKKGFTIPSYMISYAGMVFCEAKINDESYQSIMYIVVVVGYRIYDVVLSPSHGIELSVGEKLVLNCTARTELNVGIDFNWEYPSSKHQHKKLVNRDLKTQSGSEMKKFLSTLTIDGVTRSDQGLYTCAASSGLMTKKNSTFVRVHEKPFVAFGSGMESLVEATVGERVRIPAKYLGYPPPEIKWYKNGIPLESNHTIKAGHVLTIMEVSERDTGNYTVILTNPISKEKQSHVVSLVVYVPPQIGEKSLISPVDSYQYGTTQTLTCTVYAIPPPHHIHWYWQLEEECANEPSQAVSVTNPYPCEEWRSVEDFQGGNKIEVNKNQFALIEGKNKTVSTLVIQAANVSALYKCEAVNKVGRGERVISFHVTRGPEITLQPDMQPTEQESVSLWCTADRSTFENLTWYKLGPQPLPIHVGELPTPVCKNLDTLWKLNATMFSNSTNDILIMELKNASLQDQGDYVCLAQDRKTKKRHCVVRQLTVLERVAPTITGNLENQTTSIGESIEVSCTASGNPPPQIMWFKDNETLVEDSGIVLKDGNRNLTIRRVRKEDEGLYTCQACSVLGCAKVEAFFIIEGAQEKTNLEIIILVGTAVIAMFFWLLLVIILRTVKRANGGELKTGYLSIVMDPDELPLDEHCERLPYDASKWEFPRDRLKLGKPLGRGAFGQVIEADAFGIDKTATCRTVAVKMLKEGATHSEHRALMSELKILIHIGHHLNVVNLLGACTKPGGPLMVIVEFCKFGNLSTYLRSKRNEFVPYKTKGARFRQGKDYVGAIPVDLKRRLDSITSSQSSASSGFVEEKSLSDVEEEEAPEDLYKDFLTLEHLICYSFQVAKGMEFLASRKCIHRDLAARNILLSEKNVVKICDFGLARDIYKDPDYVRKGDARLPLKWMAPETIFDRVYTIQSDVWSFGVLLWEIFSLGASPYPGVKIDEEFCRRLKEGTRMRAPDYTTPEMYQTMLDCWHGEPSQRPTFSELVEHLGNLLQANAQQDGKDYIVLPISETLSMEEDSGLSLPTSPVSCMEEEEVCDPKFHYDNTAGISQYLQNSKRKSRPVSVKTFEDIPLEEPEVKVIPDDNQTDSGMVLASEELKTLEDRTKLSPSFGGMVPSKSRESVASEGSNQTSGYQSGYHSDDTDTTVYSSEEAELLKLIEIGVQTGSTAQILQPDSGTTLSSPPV
The assay can be described thus: KDR enzymatic assay (Caliper LifeSciences technology). Here is the method: as §1, §2, §3, §4, §5

As a reminder, the IC50 is the concentration needed to halve the response being measured. For `Clc1nccn2nc(Nc3ccccc3)nc12` [Example B5, 8-Chloro-[1,2,4]triazolo[1,5-a]pyrazin-2-yl-phenyl-amine], the IC50 at Syk and on ZAP-70 was 3 to 50 µM throughout.

As for `Cn1ccnc1Sc1ccc(Nc2nc3c(Cl)nccn3n2)cc1Cl` [Example B6, [3-Chloro-4-(1-methyl-1H-imidazol-2-ylsulfanyl)-phenyl]-(8-chloro-[1,2,4]triazolo[1,5-a]pyrazin-2-yl)-amine], the IC50 on Syk and on ZAP-70 was 3 to 50 µM each time.

For the compound `COc1cc(OC)cc(-c2nccn3nc(Nc4ccccc4)nc23)c1` [Example C18, [8-(3,5-Dimethoxy-phenyl)-[1,2,4]triazolo[1,5-a]pyrazin-2-yl]-phenyl-amine], the IC50 is under 0.3 µM on Syk and 3 to 50 µM at ZAP-70.

Take `COc1cc(OC)cc(-c2nccn3nc(Nc4ccc5cnn(Cc6ccccc6)c5c4)nc23)c1` [Example C26, (1-Benzyl-1H-indazol-6-yl)-[8-(3,5-dimethoxy-phenyl)-[1,2,4]triazolo[1,5-a]pyrazin-2-yl]-amine]: the IC50 on Syk and at ZAP-70 was 0.3 to 3 µM throughout.

In the case of `c1ccc(Cn2ncc3ccc(Nc4nc5c(-c6cccnc6)nccn5n4)cc32)cc1` [Example C27, (1-Benzyl-1H-indazol-6-yl)-(8-pyridin-3-yl-[1,2,4]triazolo[1,5-a]pyrazin-2-yl)-amine], the values for the IC50 at Syk and against ZAP-70 were 0.3 to 3 µM and 3 to 50 µM, respectively.

On to `CN1CCN(CCCNc2nccn3nc(Nc4cccc(C(F)(F)F)c4)nc23)CC1` [Example C43, N^843-(4-Methyl-piperazin-1-yl)-propyq-N^2-(3-trifluoromethyl-phenyl)-[1,2,4]triazolo[1,5-a]pyrazine-2,8-diamine], for which the IC50 at ZAP-70 and on KDR was 3 to 50 µM each time.

With `COCCCNc1nccn2nc(Nc3cccc(C(F)(F)F)c3)nc12` [Example C44, N^8-(3-Methoxy-propyl)-N^2-(3-trifluoromethyl-phenyl)-[1,2,4]triazolo[1,5-a]pyrazine-2,8-diamine], the IC50 at Syk and at ZAP-70 was 3 to 50 µM in each case.

As for `c1ccc(Nc2nc3c(NCCCN4CCOCC4)nccn3n2)cc1` [Example C51, N^8-(3-Morpholin-4-yl-propyl)-N^2-phenyl-[1,2,4]triazolo[1,5-a]pyrazine-2,8-diamine], the IC50 against ZAP-70 lay within 0.3 to 3 µM; against KDR it was 3 to 50 µM.

On ZAP-70, `Cc1cc(C)cc(Nc2nc3c(Nc4ccc5c(n4)NC(=O)C(C)(C)O5)nccn3n2)c1` [Example C60, 6-[2-(3,5-Dimethyl-phenylamino)-[1,2,4]triazolo[1,5-a]pyrazin-8-ylamino]-2,2-dimethyl-4H-pyrido[3,2-b][1,4]oxazin-3-one] showed an IC50 of 3 to 50 µM.

As for `c1ccc(Cn2ncc3ccc(Nc4nccn5nc(Nc6ccccc6)nc45)cc32)cc1` [Example C75, N^8-(1-Benzyl-1H-indazol-6-yl)-N^2-phenyl-[1,2,4]triazolo[1,5-a]pyrazine-2,8-diamine], the IC50 against ZAP-70 fell in the range of 3 to 50 µM.

With `FC(F)(F)c1cccc(Nc2nccn3nc(Nc4ccccc4)nc23)c1` [Example C76, N^2-Phenyl-N^8-(3-trifluoromethyl-phenyl)-[1,2,4]triazolo[1,5-a]pyrazine-2,8-diamine], the IC50 at Syk and on ZAP-70 was 3 to 50 µM each time.

With `Cc1cc(C)cc(Nc2nccn3nc(Nc4ccc(Sc5nccn5C)c(Cl)c4)nc23)c1` [Example C77, N^2-[3-Chloro-4-(1-methyl-1H-imidazol-2-ylsulfanyl)-phenyl]-N^8-(3,5-dimethyl-phenyl)-[1,2,4]triazolo[1,5-a]pyrazine-2,8-diamine], the IC50 at Syk and on ZAP-70 was 3 to 50 µM in each case.

Turning to `COc1cc(Nc2nccn3nc(Nc4ccc(Sc5nccn5C)c(Cl)c4)nc23)cc(OC)c1` [Example C78, N^2-[3-Chloro-4-(1-methyl-1H-imidazol-2-ylsulfanyl)-phenyl]-N^8-(3,5-dimethoxy-phenyl)-[1,2,4]triazolo[1,5-a]pyrazine-2,8-diamine], the IC50 on Syk and against ZAP-70 was 3 to 50 µM each time.

Regarding `Cc1cccc(Nc2nccn3nc(Nc4ccc(Sc5nccn5C)c(Cl)c4)nc23)c1` [Example C79, N^2-[3-Chloro-4-(1-methyl-1H-imidazol-2-ylsulfanyl)-phenyl]-N^8-m-tolyl-[1,2,4]triazolo[1,5-a]pyrazine-2,8-diamine], the figures for the IC50 at Syk and against ZAP-70 were 3 to 50 µM and 0.3 to 3 µM, respectively.

For the compound `Cn1ccnc1Sc1ccc(Nc2nc3c(Nc4ccccc4)nccn3n2)cc1Cl` [Example C80, N^2-[3-Chloro-4-(1-methyl-1H-imidazol-2-ylsulfanyl)-phenyl]-N^8-phenyl-[1,2,4]triazolo[1,5-a]pyrazine-2,8-diamine], the IC50 at Syk lay within 3 to 50 µM; at ZAP-70, 0.3 to 3 µM.

On to `Cc1cc(C)cc(Nc2nccn3nc(Nc4ccc5cnn(Cc6ccccc6)c5c4)nc23)c1` [Example C81, N^2-(1-Benzyl-1H-indazol-6-yl)-N^8-(3,5-dimethyl-phenyl)-[1,2,4]triazolo[1,5-a]pyrazine-2,8-diamine], for which the IC50 at Syk and against ZAP-70 was 3 to 50 µM each time.

At ZAP-70, `COc1cc(Nc2nccn3nc(Nc4ccc5cnn(Cc6ccccc6)c5c4)nc23)cc(OC)c1` [Example C82, N^2-(1-Benzyl-1H-indazol-6-yl)-N^8-(3,5-dimethoxy-phenyl)-[1,2,4]triazolo[1,5-a]pyrazine-2,8-diamine] came in with an IC50 of 3 to 50 µM.

For the compound `Cc1cccc(Nc2nccn3nc(Nc4ccc5cnn(Cc6ccccc6)c5c4)nc23)c1` [Example C84, N^2-(1-Benzyl-1H-indazol-6-yl)-N^8-m-tolyl-[1,2,4]triazolo[1,5-a]pyrazine-2,8-diamine], the IC50 against ZAP-70 was 3 to 50 µM.

Regarding `c1ccc(Cn2ncc3ccc(Nc4nc5c(Nc6ccccc6)nccn5n4)cc32)cc1` [Example C85, N^2-(1-Benzyl-1H-indazol-6-yl)-N^8-phenyl-[1,2,4]triazolo[1,5-a]pyrazine-2,8-diamine], the IC50 against ZAP-70 was in the range of 0.3 to 3 µM.

`Cc1cc(C)cc(Nc2nccn3nc(Nc4cccc(C(F)(F)F)c4)nc23)c1` [Example C86, N^8-(3,5-Dimethyl-phenyl)-N^2-(3-trifluoromethyl-phenyl)-[1,2,4]triazolo[1,5-a]pyrazine-2,8-diamine]: at ZAP-70, the IC50 was 3 to 50 µM.

`COc1cc(Nc2nccn3nc(Nc4cccc(C(F)(F)F)c4)nc23)cc(OC)c1` [Example C87, N^8-(3,5-Dimethoxy-phenyl)-N^2-(3-trifluoromethyl-phenyl)-[1,2,4]triazolo[1,5-a]pyrazine-2,8-diamine]: on ZAP-70, the IC50 was 3 to 50 µM.

With `FC(F)(F)c1cccc(Nc2nc3c(Nc4ccccc4)nccn3n2)c1` [Example C88, N^8-Phenyl-N^2-(3-trifluoromethyl-phenyl)-[1,2,4]triazolo[1,5-a]pyrazine-2,8-diamine], at ZAP-70, the IC50 is 3 to 50 µM.

Turning to `O=C1Cc2cc(Nc3nc4c(-c5cnc6ccccc6c5)nccn4n3)ccc2N1` [Example C263, 5-(8-Quinolin-3-yl-[1,2,4]triazolo[1,5-a]pyrazin-2-ylamino)-1,3-dihydro-indol-2-one], the IC50 on Syk and against ZAP-70 was 3 to 50 µM each time.
